Entries after “also recorded” stand apart in the source; their conditions may differ. Read-outs that look alike come from different tables or passages of the source.
Key:
Golden Syrian hamsters [1] = assay: Analysis of liver cholesterol and dihydrocholesterol in hamster hyperlipidemia model; type: in vivo; settings: 6 weeks
Description: (§1) Six different experimental diets were prepared by mixing the ingredients according to Table 1 and blending these mixtures with a gelatin solution (20 g/L) in a ratio of 200 g composition per liter of solution. Once the gelatin had set, the product were cut into pieces of approximately 10 g cubes and stored frozen at −80° C. until use.
(§2) After this acclimation period the hamsters were randomly divided into six test groups and fed one of the experimental diets for another six weeks.
Cholesterol content in organs was determined by a standard method. Cholesterol in the tissue sample was calculated according to the amount of internal standard 5α-cholestanol added.

Golden Syrian hamsters [2] = assay: Analysis of fecal neutral and acidic sterols in hamster hyperlipidemia model; type: in vivo; settings: for increase in excretion of cholesterol and its microbial derivatives compared with the HCD control: feces
Description: as §1, §2
Neutral and acidic sterols in the feces were quantified by a standard method using gas chromatography (GC). In brief, the total fecal sample (300 mg) from each hamster was freeze-dried, ground and well mixed. 0.3 mg of 5α-cholestanol was added as an internal standard for quantification of neutral sterols by GC analysis. The remaining aqueous layer was saved for the analysis of acidic sterols.

LDL receptor [3] = assay: mRNA of hepatic LDL receptor; type: in vivo, Golden Syrian hamsters; settings: liver, 6 weeks
[4] = Food intake, body and organ weight in hamster hyperlipidemia model; type: in vivo, Golden Syrian hamsters; settings: 6 weeks
Description: as §1
(§3) 46 male Golden Syrian hamsters (n=46; body weights=110-120 g) were housed in wire-bottomed cages at 23° C. in an animal room with 12-hour light-dark cycle (one per cage). All hamsters were maintained on a standard cereal based diet for two weeks.
as §2

Golden Syrian hamsters [5] = type: in vivo; settings: 6 weeks
Golden Syrian hamsters [6] = assay: Analysis of plasma lipoproteins (TC, HDL, non-HDL cholesterol, TG) in hamster hyperlipidemia model; type: in vivo; settings: for plasma TC compared with the HCD group / plasma TG compared with the HCD group / plasma non-HDL-C compared with the HCD group: end of week 6; for dose dependence of the cholesterol-lowering effect: 0.2% versus 0.3% in diet
Description: as §1, §3, §2
Plasma total cholesterol (TC) and triacylglycerols (TG) were quantified using commercial enzymatic kits from Infinity (Waltham, Mass., U.S.A) and Stanbio Laboratories (Boerne, Tex., U.S.A.), respectively. To determine high-density lipoprotein cholesterol (HDL), low-density lipoprotein cholesterol (LDL) and very low-density lipoprotein cholesterol (VLDL) were first precipitated with a commercial kit (Stanbio) containing phosphotungstic acid and magnesium chloride. HDL cholesterol in supernatant phase was measured similarly as done for TC. Non-HDL cholesterol was calculated by deducing HDL cholesterol from TC.

[7] = test system: liver X receptor alpha (LXRα); assay: Immunoblot of hepatic LXRα protein mass; type: in vivo, Golden Syrian hamsters; settings: western blot, 6 weeks
LDL receptor [8] = assay: Immunoblot of hepatic LDL receptor protein mass; type: in vivo, Golden Syrian hamsters; settings: liver, western blot; 0.3% in high cholesterol diet, 6 weeks
[9] = 0.2% in high cholesterol diet, week 6
[10] = 0.3% in high cholesterol diet, week 6

| Compound | decrease in liver cholesterol (Golden Syrian hamsters [1]; 0.2% in high cholesterol diet) | hepatic cholesterol levels compared with the HCD control (Golden Syrian hamsters [1]; 0.2% in high cholesterol diet) | decrease in liver cholesterol (Golden Syrian hamsters [1]; 0.3% in high cholesterol diet) | hepatic cholesterol levels compared with the HCD control (Golden Syrian hamsters [1]; 0.3% in high cholesterol diet) | total fecal neutral sterols excreted compared with the controls (Golden Syrian hamsters [2]; [9]) | total fecal neutral sterols excreted compared with the controls (Golden Syrian hamsters [2]; [10]) | mRNA level of the LDL receptor compared with the HCD control (LDL receptor [3]; 0.2% in high cholesterol diet) | mRNA level of the LDL receptor compared with the HCD control (LDL receptor [3]; 0.3% in high cholesterol diet) | epididymal fat pad weight compared with the control ([4]; 0.2% in high cholesterol diet) | kidney weight compared with HCD ([4]; 0.2% in high cholesterol diet) | liver weight compared with the HCD group ([4]; 0.2% in high cholesterol diet) | kidney weight compared with HCD ([4]; 0.3% in high cholesterol diet) | liver weight compared with the HCD group ([4]; 0.3% in high cholesterol diet) | Body Weight Final ([4]; 0.2% in high cholesterol diet) | Body Weight Final ([4]; 0.3% in high cholesterol diet) | atherosclerotic plague compared with the HCD control group (Golden Syrian hamsters [5]; 0.2% in high cholesterol diet) | atherosclerotic plague compared with the HCD control group (Golden Syrian hamsters [5]; 0.3% in high cholesterol diet) | plasma TC compared with the HCD group (Golden Syrian hamsters [6]; 0.2% in high cholesterol diet) | plasma TG compared with the HCD group (Golden Syrian hamsters [6]; 0.2% in high cholesterol diet) | plasma non-HDL-C compared with the HCD group (Golden Syrian hamsters [6]; 0.2% in high cholesterol diet) | also measured |
| --- | --- | --- | --- | --- | --- | --- | --- | --- | --- | --- | --- | --- | --- | --- | --- | --- | --- | --- | --- | --- | --- |
| CC(C)CCC[C@@H](C)[C@H]1CC[C@H]2[C@@H]3CC[C@H]4C[C@@H](O)CC[C@]4(C)[C@H]3CC[C@]12C [DHC, dihydrocholesterol] | 67.5% | significantly lower | 71.5% | significantly lower | greater | greater | up-regulated | up-regulated | decreased | no significant difference | decreased | reduced | decreased | 115.38 ± 9.02 g | 115.43 ± 7.00 g | significantly lesser | significantly lesser | significantly lower; also recorded: significantly reduces | significantly lower; also recorded: significantly reduces | significantly lower | DHC accumulated in the liver (Golden Syrian hamsters [1]; 0.2% DHC in high cholesterol diet (DA)): about 2 mg DHC/g liver; reducing the liver cholesterol, compared with SA and SB (β-sitosterol) (Golden Syrian hamsters [1]; 0.2% and 0.3% diets): more effective; DHC accumulated in the liver (Golden Syrian hamsters [1]; 0.3% DHC in high cholesterol diet (DB)): about 2 mg DHC/g liver; excretion of total neutral sterols compared with corresponding SA and SB (β-sitosterol) groups (Golden Syrian hamsters [2]; 0.2% and 0.3% diets, week 6): greater; increase in excretion of cholesterol and its microbial derivatives compared with the HCD control (Golden Syrian hamsters [2]; 0.2% in high cholesterol diet): 11.5 fold; increase in excretion of cholesterol and its microbial derivatives compared with the HCD control (Golden Syrian hamsters [2]; 0.3% in high cholesterol diet): 19.1 fold; reducing serum TG, compared with β-sitosterol (Golden Syrian hamsters [6]; 0.2% and 0.3% diets): more effective than β-sitosterol; dose dependence of the cholesterol-lowering effect (Golden Syrian hamsters [6]): not dose-dependent; plasma TC compared with the HCD group (Golden Syrian hamsters [6]; 0.3% in high cholesterol diet): significantly lower; also recorded: significantly reduces; plasma TG compared with the HCD group (Golden Syrian hamsters [6]; 0.3% in high cholesterol diet): significantly lower; also recorded: significantly reduces; plasma non-HDL-C compared with the HCD group (Golden Syrian hamsters [6]; 0.3% in high cholesterol diet): significantly lower; LXRα protein mass ([7]; 0.2% in high cholesterol diet): up-regulated LXRα slightly; LXRα protein mass ([7]; 0.3% in high cholesterol diet): up-regulated LXRα slightly |
| CC[C@H](CC[C@@H](C)[C@H]1CC[C@H]2[C@@H]3CC=C4C[C@@H](O)CC[C@]4(C)[C@H]3CC[C@]12C)C(C)C [β-sitosterol, reference compound] | 30.5% | significantly lower | 38.4% | significantly lower | greater | greater | up-regulated | up-regulated | decreased | reduced | decreased | no significant difference | decreased | 118.43 ± 13.74 g | 112.00 ± 8.05 g | significantly lesser | significantly lesser | significantly lower | significantly lower | significantly lower | excretion of acidic sterols compared with corresponding DA and DB (DHC) groups (Golden Syrian hamsters [2]; 0.2% and 0.3% diets, week 6): greater; LDL receptor protein (LDL receptor [8]): significantly up-regulated; epididymal fat pad weight compared with the control ([4]; 0.3% in high cholesterol diet): decreased; reducing the formation of atherosclerotic plague, compared with DA and DB (DHC) diets (Golden Syrian hamsters [5]; 0.2% and 0.3% diets): more effective; dose dependence of the cholesterol-lowering effect (Golden Syrian hamsters [6]): dose-dependent; plasma TC compared with the HCD group (Golden Syrian hamsters [6]; 0.3% in high cholesterol diet): significantly lower; plasma TG compared with the HCD group (Golden Syrian hamsters [6]; 0.3% in high cholesterol diet): significantly lower; plasma non-HDL-C compared with the HCD group (Golden Syrian hamsters [6]; 0.3% in high cholesterol diet): significantly lower; reducing plasma TC, compared with DHC (Golden Syrian hamsters [6]; [10]): more effective than DHC; LXRα protein mass ([7]; 0.2% in high cholesterol diet): significantly up-regulated; LXRα protein mass ([7]; 0.3% in high cholesterol diet): significantly up-regulated |

Reference: US20170281650A1 (priority 2014, published 2017)
